# According to paper PMC10673250, “Exploring Alkyl Ester Salts of L-Amino Acid Derivatives of Ibuprofen: Physicochemical Characterization and Transdermal Potential” (Molecules, 2023):
# Several values for one entry are separate records, joined by “and”; a condition that tells them apart may be missing. Identical values can stand only once. Counter-ions that a name gives are not always drawn. Like-named read-outs stand apart in the source and are kept apart here.
# Assays:
# [1] = pig skin, concentration 0.01 g·cm^−3; cited from earlier work
# [2] = Partition coefficient n-octanol/water (shake-flask, HPLC); assay type: physicochemical; details: 25 °C
# Method: For L-glutamic acid alkyl ester ibuprofenates, the partition coefficient was determined using n-octanol/water extraction. For this purpose, 10 mg of the substance, weighed with an accuracy of 0.01 mg, was mixed with 5 cm^3 of water saturated with n-octanol and 5 cm^3 of n-octanol saturated with water. The mixture was stirred vigorously at 25 °C for 3 h and then centrifuged at 7500 rpm·min^−1 at 25 °C for 10 min to separate the phases. The phases were then separated. The concentration of the compound was determined in the aqueous layer using the HPLC method (standard curve method).
# The partition coefficient log P was calculated based on Equation (3):(3) logP=logcoct−logcw where: • cw and coct are the concentrations (mg·dm^−3) of the solute in the aqueous and octanol layers.
# The concentration of the compound dissolved in octanol was calculated from Equation (4):(4) coct=c0−cw where: • c0 is the concentration of the compound calculated based on sample weights prepared for analysis.
# The concentration of the substance in the aqueous layer was determined using the SHIMADZU Nexera-i LC-2040C 3D High Plus high-performance liquid chromatography method with a DAD/FLD detector. A mixture of 50% acetonitrile and 50% water was used as the moving fluid under isocratic conditions at a 1 cm^3·min^−1 flow rate. A Kinetex® 2.6 µm F5 100 Å column heated to 35 °C with dimensions of 150 × 4.6 mm^2 from Phenomenex was used. The spectra were recorded at a wavelength of 210 nm. The injection volume for these samples was 50 mm^3. Each measurement was performed three times, and the results were averaged. The concentration of ibuprofen and its salts was calculated from peak area measurements using the calibration curve method (Figure 8). The results were analyzed using LabSolutions/LC Solution System.
# [3] = Solubility in water (saturated solutions, HPLC); assay type: physicochemical; details: water at 25 °C
# Method: Water solubility was determined by obtaining saturated solutions of the obtained ibuprofenates. For this purpose, the appropriate amount of ibuprofen salt was weighed in a vial, poured with deionized water, and stirred vigorously on a magnetic stirrer at 25 °C for 24 h. After this time, the mixture was filtered using a syringe filter made of MCE (mixed cellulose esters) with a pore diameter 0.45 µm. Then, the filtrate was diluted one hundred times with acetonitrile: water solution (1:1). The concentration of the compound was determined by the HPLC method described in Section 3.2.9.
# [4] = Permeability of the active substance through pig skin, Franz diffusion chambers, in vitro; details: for Jss, steady-state flux: 1% IBU in 70% ethanol, 37 °C; for Jss, steady-state flux / Q%24h, the percentage of the applied dose / LT, lag time / CMP (cumulative permeation mass): n = 3; for Q%24h, the percentage of the applied dose / CMP (cumulative permeation mass): 24 h
# Method: Tests for the penetration of the active substance through pig skin were performed using Franz diffusion chambers (Phoenix DB-6, ABL&E-JASCO, Vienna, Austria) with diffusion areas of 1 cm^2 according to the modified method [15].
# Pig skin obtained from the belly was purchased from a local slaughterhouse. The outer layer, 0.5 mm thick, was then removed using a dermatome and cut into 2 cm × 2 cm pieces. Before use in the study, the skin was soaked in buffered saline (PBS) solution at pH 7.4.
# Skin impedance assessment was performed using an LCR meter 4080 (Voltcraft LCR 4080, Conrad Electronic, Hirschau, Germany), which was operated in parallel mode at an alternating frequency of 120 Hz (error for kΩ values < 0.5%). The measurements were made by placing the tips of the measurement probes in the donor and acceptor chambers, separated by a skin sample. Both chambers were filled with PBS buffer pH 7.4. Skin samples with an impedance > 3 kΩ were used for testing, which corresponds to the electrical resistance of human skin [15, 18].
# The acceptor chamber with a capacity of 10 cm^3 was filled with PBS solution (pH 7.4). A total of 1 cm^3 of a solution of ibuprofen or L-amino acid alkyl ester ibuprofenate with a concentration of 1% based on the active substance (ibuprofen) in 70% ethanol was placed in the acceptor chamber.
# The experiment was conducted for 24 h at 37 °C. After 0.5 h, 1 h, 2 h, 3 h, 4 h, 5 h, 8 h, and 24 h from the start of the permeation experiment, 0.5 cm^3 samples of the acceptor fluid were taken, respectively, and refilled with fresh PBS solution. The content of ibuprofen or its salts in the acceptor liquid was determined by HPLC. Based on this concentration, the cumulative mass expressed as ibuprofen was calculated (µg IBU·cm^−2) [3, 19, 20, 21, 22].
# The constant flow coefficient (in µg IBU·cm^−2·h^−1) through the pig skin into the acceptor fluid was determined as the slope of the plot of accumulated mass in the acceptor fluid as a function of time.
# Steady-state flow was estimated from the slope of the linear part of the plot of accumulated mass in the acceptor phase over time. The lag time (LT) was determined based on the x-intercept of the linear part of the graph of accumulated mass in the acceptor phase over time. It was then used to calculate the permeability coefficient Kp using Equation (6):(6) Kp=Jss/C where: • C—concentration in the donor phase (µg·cm^−3).
# The diffusion coefficient (D) was calculated based on Equation (7):(7) D=I^2/6·LT where: • I—diffusion path, skin thickness (mm).
# The skin partition coefficient (Km) was calculated based on Equation (8):(8) Km=Kp·I/D
# [5] = Accumulation in the skin after the permeation test, in vitro; assay type: in vitro ADME, pig; details: after 24 h permeation; for accumulation in pig skin: mean ± SD, n = 3
# Method: After completing the permeation test, the skin was removed from the Franz chamber, then washed with 0.5% sodium lauryl sulfate solution and dried with a paper towel. After being thoroughly air-dried, the leather was cut into pieces and extracted with 2 cm^3 of methanol for 24 h at 4 °C. Then, the samples were homogenized using a homogenizer (IKA®T18 digital ULTRA TURRAX, Staufen, Germany) for 3 min and centrifuged at 3500 rpm·min^−1 for 5 min. After centrifugation, the solution was analyzed by HPLC. The accumulation of IBU and its salts in pig skin was calculated by dividing the amount of substance remaining in the samples by the weight of the skin sample and it was expressed as the weight of IBU per gram of skin (µg IBU·g^−1).
# [6] = administered on an empty stomach, 71 healthy adults; cited from earlier work
# [7] = Thermogravimetric analysis (thermal stability); assay type: physicochemical
# Method: Thermal stability was assessed using thermogravimetric studies performed on a […]1 Libra thermomicrobalance (Selb, Germany). The test was carried out in an oxidizing environment, with the flow of nitrogen (protective gas): 10 cm^3·min^-1, air: 25 cm^3·min^-1 in the temperature range from 25 to 1000 °C. Samples weighing approximately 5 mg were heated at 10 °C·min^-1. The decomposition onset temperature (Tonset) was calculated using the intersection of the tangents of the TG curve. The fastest decomposition temperatures (Tmax) were calculated using the first TG curve (DTG curve) derivative.
# [8] = in terms of the active substance (ibuprofen)
# [9] = TG, oxidizing environment, 10 °C·min^−1
Structure (SMILES),"Solubility in Water [3, 8] [g IBU·dm^−3]","Jss, steady-state flux [4]","Q%24h, the percentage of the applied dose [4] [%]","Tonset, the onset temperature of the thermal degradation [7, 9] [°C]",log P [2],"Tonset, the onset temperature of the thermal degradation [7] [°C]",Solubility in Water ([3]; as compound) [g·dm^−3],CMP (cumulative permeation mass) [4] [g IBU·dm^−3],also measured
"CC(C)Cc1ccc(C(C)C(=O)O)cc1 (racemic) [IBU, (RS)-2-[4-(2-methylpropyl)phenyl]propionic acid, reference compound]",0.075 ± 0.001,26.539 ± 0.320 µg IBU·cm^−2·h^−1,0.302 ± 0.038,,,,,,"skin penetration rate [1]: 6%; logP [2]: 3.37; solubility at 24 h ([3]; deionized water, as compound): 75 ± 1 µg/mL; LT, lag time [4]: 0.153 ± 0.029 h; D·10^4, diffusion coefficient ([4]; n = 3, value is D·10^4): 27.926 ± 5.802 cm^2·h^−1; accumulation in pig skin [5]: 1057.468 ± 200.589 µg IBU·g^−1 pig skin"
CC(C)Cc1ccc(C(C)C(=O)[O-])cc1.[Na+] (stereo not drawn) [IBUNa],,,,,,,,,Cmax higher compared to rac-IBU [6]: approximately 30%
CCCCOC(=O)CCC(N)C(=O)OCCCC (stereo not drawn) [[Glu(OBu)2][HCl]],,,,172.8,,,,,
CC(C)Cc1ccc(C(C)C(=O)O)cc1.CCCCOC(=O)C(N)CCC(=O)O (stereo not drawn) [[Glu(OBu)][IBU]],0.109 ± 0.004,32.282 ± 7.809 µg IBU·cm^−2·h^−1,0.452 ± 0.026,,3.000 ± 0.010,206.8,0.217 ± 0.007,0.109 ± 0.004,"LT, lag time [4]: 0.102 ± 0.069 h; accumulated mass relative to ibuprofen [5]: approximately 90%; accumulation in pig skin [5]: 931.823 ± 93.449 µg IBU·g^−1 pig skin"
CCOC(=O)CCC(N)C(=O)OCC (stereo not drawn) [[Glu(OEt)2][HCl]],,,,168.3,,,,,
CC(C)Cc1ccc(C(C)C(=O)O)cc1.CCOC(=O)C(N)CCC(=O)O (stereo not drawn) [[Glu(OEt)][IBU]],0.100 ± 0.001,30.855 ± 6.617 µg IBU·cm^−2·h^−1,0.566 ± 0.005,,2.37 and 2.374 ± 0.001,194.2,0.185 ± 0.003,0.100 ± 0.001,"permeation rate difference compared to [Glu(OPent)][IBU] ([4]; after 24 h): approximately 0.5 μg∙h^−1; LT, lag time [4]: 0.029 ± 0.050 h"
CCCCCOC(=O)CCC(N)C(=O)OCCCCC (stereo not drawn) [[Glu(OPent)2][HCl]],,,,169.5,,,,,
CC(C)Cc1ccc(C(C)C(=O)O)cc1.CCCCCOC(=O)C(N)CCC(=O)O (stereo not drawn) [[Glu(OPent)][IBU]],0.101 ± 0.012,57.098 µg IBU·cm^−2·h^−1 and 57.098 ± 29.761 µg IBU·cm^−2·h^−1,0.582 ± 0.047,,2.459 ± 0.002,206.9,0.208 ± 0.024,0.101 ± 0.012,permeation rate relative to ibuprofen ([4]; within the first two hours): twice as high as ibuprofen; accumulation in pig skin [5]: 625.895 ± 87.275 µg IBU·g^−1 pig skin
CC(C)Cc1ccc(C(C)C(=O)O)cc1.CCCOC(=O)C(N)CCC(=O)O (stereo not drawn) [[Glu(OPr)][IBU]],0.120 ± 0.004,26.451 ± 2.253 µg IBU·cm^−2·h^−1,0.506 ± 0.008,,2.380 ± 0.003,199.7,0.230 ± 0.007,0.120 ± 0.004,
CC(C)OC(=O)CCC(N)C(=O)OC(C)C (stereo not drawn) [[Glu(OiPr)2][HCl]],,,,174.4,,,,,
CC(C)Cc1ccc(C(C)C(=O)O)cc1.CC(C)OC(=O)C(N)CCC(=O)O (stereo not drawn) [[Glu(OiPr)][IBU]],0.203 ± 0.006,23.298 ± 3.459 µg IBU·cm^−2·h^−1,0.373 ± 0.0175,,2.860 ± 0.007,222.9,0.390 ± 0.011,,solubility relative to ibuprofen (standard) ([3]; per active mass of ibuprofen): approximately three times higher; penetrated better than ibuprofen ([4]; versus ibuprofen): ~40%
CCCOC(=O)CCC(N)C(=O)OCCC (stereo not drawn) [[Glu(Opr)2][HCl]],,,,170.5,,,,,
CCC(C)OC(=O)CCC(N)C(=O)OC(C)CC (stereo not drawn) [[Glu(Osec-Bu)2][HCl]],,,,181.5,,,,,
CC(C)Cc1ccc(C(C)C(=O)O)cc1.CCC(C)OC(=O)C(N)CCC(=O)O (stereo not drawn) [[Glu(Osec-Bu)][IBU]],0.093 ± 0.012,22.296 ± 1.398 µg IBU·cm^−2·h^−1,0.456 ± 0.048,,3.191 ± 0.007,204.2,0.185 ± 0.024,0.093 ± 0.012,
